In patent US10597388B2, “Pyridazinone herbicides” (FMC CORPORATION, priority 2014, dated 2020):

What was measured:
Format in all cases: in vivo
[1] = test system: foxtail, green (green foxtail, Setaria viridis); assay: Test E greenhouse herbicide test, pre- and postemergence; conditions: Preemergence
Method in brief: (§1)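 Compounds in surfactant-containing solvent are applied to soil right after sowing (silt loam) and, in parallel, to 1- to 4-leaf plants in a peat-based medium. Weed control is scored visually on a 0 (none) to 100 (complete) scale at 14 to 21 d.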

[2] = test system: horseweed (Conyza canadensis); assay: as above
Method in brief: as §1

[3] = test system: arrowleaf sida (Sida rhombifolia); assay: as above
Method in brief: as §1

[4] = test system: crabgrass, Brazilian (Brazilian crabgrass, Digitaria horizontalis); assay: as above
Method in brief: as §1

[5] = test system: waterhemp (common waterhemp, Amaranthus rudis); assay: as above
Method in brief: as §1

[6] = test system: velvetleaf (Abutilon theophrasti); assay: as above; conditions: Preemergence
Method in brief: as §1

kochia (Kochia scoparia) = assay: as above
Method in brief: as §1

[7] = test system: ragweed (common ragweed, Ambrosia elatior); assay: as above
Method in brief: as §1

[8] = test system: johnsongrass (Sorghum halepense); assay: as above; conditions: Preemergence
Method in brief: as §1

soybean (Glycine max) = assay: as above
Method in brief: as §1

[9] = test system: pigweed, palmer (palmer pigweed, Amaranthus palmeri); assay: as above
Method in brief: as §1

[10] = test system: lambsquarters (Chenopodium album); assay: as above; conditions: Preemergence
Method in brief: as §1

[11] = test system: foxtail, giant (giant foxtail, Setaria faberii); assay: as above; conditions: Preemergence
Method in brief: as §1

[12] = test system: sandbur (southem sandbur, Cenchrus echinatus); assay: as above
Method in brief: as §1

[13] = test system: nutsedge, yellow (yellow nutsedge, Cyperus esculentus); assay: as above; conditions: Preemergence
Method in brief: as §1

[14] = test system: waterhemp_RES2 (ALS & HPPD resistant common waterhemp, Amaranthus rudis); assay: Test E greenhouse herbicide test, postemergence; conditions: scale 0 to 100 (0 no effect, 100 complete control)
Method in brief: (§2)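 Postemergence spray of formulated test chemicals onto resistant waterhemp at 1- to 4-leaf stage (2–18 cm tall), grown in peat/vermiculite potting medium. Kept in greenhouse 14 to 21 d, then visually rated against untreated controls on a 0–100 scale (0 no effect, 100 complete control).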

[15] = test system: waterhemp_RES1 (ALS & Triazine resistant common waterhemp, Amaranthus rudis); assay: Test E greenhouse herbicide test, postemergence; conditions: scale 0 to 100 (0 no effect, 100 complete control)
Method in brief: as §2

[16] = 62 g ai/ha, scale 0 to 100 (0 no effect, 100 complete control)
[17] = 31 g ai/ha, scale 0 to 100, 0 no effect, 100 complete control
[18] = 125 g ai/ha, visual, scale 0 no effect to 100 complete control
[19] = 250 g ai/ha, visual, scale 0 no effect to 100 complete control
[20] = 62 g ai/ha, Preemergence, scale 0 to 100 (0 no effect, 100 complete control)
[21] = 125 g ai/ha, Postemergence, scale 0 to 100 (0 no effect, 100 complete control)
[22] = 250 g ai/ha, Postemergence, scale 0 to 100 (0 no effect, 100 complete control)
[23] = Preemergence, 31 g ai/ha, scale 0 to 100, 0 no effect, 100 complete control
[24] = Preemergence, 125 g ai/ha, visual, scale 0 no effect to 100 complete control
[25] = Preemergence, 250 g ai/ha, visual, scale 0 no effect to 100 complete control
[26] = 125 g ai/ha, Preemergence, scale 0 to 100 (0 no effect, 100 complete control)
[27] = 125 g ai/ha, scale 0 to 100 (0 no effect, 100 complete control)

CCC(=O)Oc1c(C)nn(C)c(=O)c1-c1c(C)sc2c(C)cc(C)cc12 [Compound 28]
70: Plant response rating, Arrowleaf Sida [3, 25] | Plant response rating, Crabgrass, Brazil [4, 20] | Plant response rating, Crabgrass, Brazil [4, 23] | Plant response rating, Waterhemp [5, 21] | Plant response rating, Velvetleaf [6, 27] | Plant response rating, Ragweed [7, 21] | Plant response rating, Johnsongrass [8, 17] | Plant response rating, Nutsedge, Yellow [13, 27]
98: Plant response rating, Foxtail, Green [1, 16] | Plant response rating, Horseweed [2, 25] | Plant response rating, Waterhemp [5, 26] | Plant response rating, Ragweed [7, 25] | Plant response rating, Pigweed, Palmer [9, 25] | Plant response rating, Lambsquarters [10, 19]
60: Plant response rating, Arrowleaf Sida [3, 21] | Plant response rating, Arrowleaf Sida [3, 22] | Plant response rating, Crabgrass, Brazil [4, 22] | Plant response rating, Kochia (kochia (Kochia scoparia); [24]) | Plant response rating, Soybean (soybean (Glycine max); [22]) | Plant response rating, Sandbur [12, 21] | Plant response rating, Waterhemp_RES1 ([15]; 125 g ai/ha)
100: Plant response rating, Foxtail, Green [1, 18] | Plant response rating, Foxtail, Green [1, 19] | Plant response rating, Horseweed [2, 20] | Plant response rating, Horseweed [2, 23] | Plant response rating, Horseweed [2, 24] | Plant response rating, Waterhemp [5, 25] | Plant response rating, Velvetleaf [6, 19] | Plant response rating, Kochia (kochia (Kochia scoparia); [25]) | Plant response rating, Lambsquarters [10, 16] | Plant response rating, Lambsquarters [10, 17] | Plant response rating, Lambsquarters [10, 18] | Plant response rating, Foxtail, Giant [11, 16] | Plant response rating, Foxtail, Giant [11, 18] | Plant response rating, Foxtail, Giant [11, 19]
95: Plant response rating, Ragweed [7, 26] | Plant response rating, Ragweed [7, 23] | Plant response rating, Pigweed, Palmer [9, 26] | Plant response rating, Nutsedge, Yellow [13, 19]
65: Plant response rating, Foxtail, Green [1, 17] | Plant response rating, Waterhemp [5, 23] | Plant response rating, Pigweed, Palmer [9, 20] | Plant response rating, Sandbur [12, 20]
35: Plant response rating, Velvetleaf [6, 16]
20: Plant response rating, Nutsedge, Yellow [13, 16] | Plant response rating, Nutsedge, Yellow [13, 17]
80: Plant response rating, Horseweed [2, 21] | Plant response rating, Horseweed [2, 22] | Plant response rating, Crabgrass, Brazil [4, 24] | Plant response rating, Waterhemp [5, 20] | Plant response rating, Johnsongrass [8, 16] | Plant response rating, Johnsongrass [8, 18] | Plant response rating, Sandbur [12, 26] | Plant response rating, Sandbur [12, 22] | Plant response rating, Waterhemp_RES1 ([15]; 250 g ai/ha)
85: Plant response rating, Foxtail, Giant [11, 17] | Plant response rating, Sandbur [12, 25]
15: Plant response rating, Sandbur [12, 23]
75: Plant response rating, Waterhemp [5, 22] | Plant response rating, Kochia (kochia (Kochia scoparia); [21]) | Plant response rating, Ragweed [7, 22]
90: Plant response rating, Crabgrass, Brazil [4, 25] | Plant response rating, Kochia (kochia (Kochia scoparia); [22]) | Plant response rating, Ragweed [7, 20] | Plant response rating, Johnsongrass [8, 19]
0: Plant response rating, Arrowleaf Sida [3, 20] | Plant response rating, Velvetleaf [6, 17] | Plant response rating, Kochia (kochia (Kochia scoparia); [20]) | Plant response rating, Kochia (kochia (Kochia scoparia); [23]) | Plant response rating, Soybean (soybean (Glycine max); [20]) | Plant response rating, Soybean (soybean (Glycine max); [26]) | Plant response rating, Soybean (soybean (Glycine max); [23]) | Plant response rating, Soybean (soybean (Glycine max); [25]) | Plant response rating, Pigweed, Palmer [9, 23]
50: Plant response rating, Arrowleaf Sida [3, 24] | Plant response rating, Crabgrass, Brazil [4, 21] | Plant response rating, Soybean (soybean (Glycine max); [21]) | Plant response rating, Pigweed, Palmer [9, 21] | Plant response rating, Pigweed, Palmer [9, 22] | Plant response rating, Waterhemp_RES2 ([14]; 125 g ai/ha) | Plant response rating, Waterhemp_RES2 ([14]; 250 g ai/ha)
